Measurements published in patent publication US20210284638A1 (Saint Louis University, priority 2018, published 2021).

Columns and labels:
Type in all cases: binding
[1] = molecular target: T1, Recombinant human integrin αVβ6 (Homo sapiens, UniProt P06756+P18564); assay: Solid Phase Receptor Assay (SPRA) for αVβ6 function; details: plate-bound human LAP
T1 construct: purchased R&D Systems 3817-AV

[2] = molecular target: T2, Recombinant human integrin αvβ1 (Homo sapiens, UniProt P05556+P06756); assay: Solid Phase Receptor Assay (SPRA) for αVβ1 function; details: plate-bound human fibronectin
T2 construct: purchased R&D Systems 6579-AV
T2 sequence (P06756 31-992 limits assumed): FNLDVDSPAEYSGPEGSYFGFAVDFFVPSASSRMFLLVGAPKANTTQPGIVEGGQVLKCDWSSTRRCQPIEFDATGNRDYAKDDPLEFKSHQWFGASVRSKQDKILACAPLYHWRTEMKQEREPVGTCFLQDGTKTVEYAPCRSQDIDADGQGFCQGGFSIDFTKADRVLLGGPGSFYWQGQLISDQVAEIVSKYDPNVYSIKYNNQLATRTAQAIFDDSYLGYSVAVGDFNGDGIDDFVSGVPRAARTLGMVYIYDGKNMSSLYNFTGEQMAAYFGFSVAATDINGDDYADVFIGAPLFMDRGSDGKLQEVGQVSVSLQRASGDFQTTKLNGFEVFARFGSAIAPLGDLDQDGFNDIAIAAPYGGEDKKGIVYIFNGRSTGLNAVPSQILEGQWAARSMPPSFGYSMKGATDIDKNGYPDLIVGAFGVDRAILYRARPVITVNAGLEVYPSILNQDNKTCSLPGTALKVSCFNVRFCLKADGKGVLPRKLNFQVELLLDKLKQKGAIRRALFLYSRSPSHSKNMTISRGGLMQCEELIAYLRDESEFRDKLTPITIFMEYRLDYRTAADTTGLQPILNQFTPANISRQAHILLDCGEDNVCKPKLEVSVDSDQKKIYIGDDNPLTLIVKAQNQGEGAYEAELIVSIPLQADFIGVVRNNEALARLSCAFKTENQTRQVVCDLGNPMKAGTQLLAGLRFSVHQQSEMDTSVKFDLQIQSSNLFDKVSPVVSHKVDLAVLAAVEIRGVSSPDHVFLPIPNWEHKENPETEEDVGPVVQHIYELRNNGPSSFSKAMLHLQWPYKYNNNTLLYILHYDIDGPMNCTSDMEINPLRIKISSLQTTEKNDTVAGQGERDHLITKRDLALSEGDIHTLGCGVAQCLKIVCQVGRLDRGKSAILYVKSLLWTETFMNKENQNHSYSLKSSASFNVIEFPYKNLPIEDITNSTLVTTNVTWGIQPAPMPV
T2 sequence (P05556 21-728 limits assumed): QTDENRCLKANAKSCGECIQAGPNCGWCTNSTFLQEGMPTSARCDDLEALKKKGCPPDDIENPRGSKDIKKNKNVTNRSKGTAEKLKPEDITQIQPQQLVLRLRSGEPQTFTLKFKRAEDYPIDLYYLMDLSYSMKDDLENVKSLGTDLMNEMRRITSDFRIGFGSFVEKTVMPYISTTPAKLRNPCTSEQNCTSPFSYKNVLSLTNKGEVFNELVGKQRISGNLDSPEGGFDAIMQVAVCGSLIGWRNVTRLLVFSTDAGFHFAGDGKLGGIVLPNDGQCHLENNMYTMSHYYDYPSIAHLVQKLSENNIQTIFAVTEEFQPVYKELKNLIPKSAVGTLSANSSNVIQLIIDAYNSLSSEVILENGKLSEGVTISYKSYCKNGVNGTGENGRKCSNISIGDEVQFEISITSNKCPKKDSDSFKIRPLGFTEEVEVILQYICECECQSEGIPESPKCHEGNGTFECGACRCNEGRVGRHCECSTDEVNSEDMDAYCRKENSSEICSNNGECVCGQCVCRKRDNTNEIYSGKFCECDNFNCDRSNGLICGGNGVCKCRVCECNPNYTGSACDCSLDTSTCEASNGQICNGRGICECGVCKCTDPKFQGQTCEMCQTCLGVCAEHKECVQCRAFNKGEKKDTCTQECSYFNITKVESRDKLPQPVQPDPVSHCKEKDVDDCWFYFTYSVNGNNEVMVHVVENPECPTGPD

[3] = molecular target: T3, Recombinant human integrin α5β1 (Homo sapiens, UniProt P05556+P08648); assay: Solid Phase Receptor Assay (SPRA) for α5β1 function; details: plate-bound human fibronectin
T3 construct: purchased R&D Systems 3230-A5
T3 sequence (P08648 42-995 limits assumed): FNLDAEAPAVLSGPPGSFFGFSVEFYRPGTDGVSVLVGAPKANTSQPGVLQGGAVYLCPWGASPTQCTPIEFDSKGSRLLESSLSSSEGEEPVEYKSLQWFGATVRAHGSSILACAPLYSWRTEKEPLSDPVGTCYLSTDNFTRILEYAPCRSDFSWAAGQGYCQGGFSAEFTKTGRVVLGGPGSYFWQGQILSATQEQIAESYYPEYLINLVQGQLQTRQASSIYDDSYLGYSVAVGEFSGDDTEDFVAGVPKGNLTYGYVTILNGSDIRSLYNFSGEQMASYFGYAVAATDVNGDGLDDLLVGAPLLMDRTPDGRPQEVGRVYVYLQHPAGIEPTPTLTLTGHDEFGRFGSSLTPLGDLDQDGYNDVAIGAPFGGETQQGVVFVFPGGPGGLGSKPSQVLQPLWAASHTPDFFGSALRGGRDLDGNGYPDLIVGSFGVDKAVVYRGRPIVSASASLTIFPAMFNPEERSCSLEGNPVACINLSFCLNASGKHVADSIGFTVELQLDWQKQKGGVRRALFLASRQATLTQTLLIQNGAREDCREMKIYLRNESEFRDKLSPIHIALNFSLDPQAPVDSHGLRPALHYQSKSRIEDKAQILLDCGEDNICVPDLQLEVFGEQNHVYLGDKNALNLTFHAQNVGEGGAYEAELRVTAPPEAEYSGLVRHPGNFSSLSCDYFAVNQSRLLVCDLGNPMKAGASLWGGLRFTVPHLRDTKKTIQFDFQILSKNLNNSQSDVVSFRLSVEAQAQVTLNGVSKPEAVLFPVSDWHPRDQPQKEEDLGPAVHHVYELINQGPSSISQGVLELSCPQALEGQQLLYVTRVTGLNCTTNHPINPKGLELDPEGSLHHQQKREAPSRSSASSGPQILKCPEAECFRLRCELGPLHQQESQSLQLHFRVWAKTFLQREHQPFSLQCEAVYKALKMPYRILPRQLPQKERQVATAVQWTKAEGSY
T3 sequence (P05556 21-728 limits assumed): as the sequence (P05556 21-728 limits assumed) above

[4] = molecular target: T4, Recombinant human integrin αVβ8 (Homo sapiens, UniProt P06756+P26012); assay: Solid Phase Receptor Assay for αVβ8 function; details: plate-bound human LAP; read-out: αVβ8 SPRA IC50
T4 construct: purchased R&D Systems 4135-AV
T4 sequence (P06756 31-992 limits assumed): as the sequence (P06756 31-992 limits assumed) above
T4 sequence (P26012 43-684 limits assumed): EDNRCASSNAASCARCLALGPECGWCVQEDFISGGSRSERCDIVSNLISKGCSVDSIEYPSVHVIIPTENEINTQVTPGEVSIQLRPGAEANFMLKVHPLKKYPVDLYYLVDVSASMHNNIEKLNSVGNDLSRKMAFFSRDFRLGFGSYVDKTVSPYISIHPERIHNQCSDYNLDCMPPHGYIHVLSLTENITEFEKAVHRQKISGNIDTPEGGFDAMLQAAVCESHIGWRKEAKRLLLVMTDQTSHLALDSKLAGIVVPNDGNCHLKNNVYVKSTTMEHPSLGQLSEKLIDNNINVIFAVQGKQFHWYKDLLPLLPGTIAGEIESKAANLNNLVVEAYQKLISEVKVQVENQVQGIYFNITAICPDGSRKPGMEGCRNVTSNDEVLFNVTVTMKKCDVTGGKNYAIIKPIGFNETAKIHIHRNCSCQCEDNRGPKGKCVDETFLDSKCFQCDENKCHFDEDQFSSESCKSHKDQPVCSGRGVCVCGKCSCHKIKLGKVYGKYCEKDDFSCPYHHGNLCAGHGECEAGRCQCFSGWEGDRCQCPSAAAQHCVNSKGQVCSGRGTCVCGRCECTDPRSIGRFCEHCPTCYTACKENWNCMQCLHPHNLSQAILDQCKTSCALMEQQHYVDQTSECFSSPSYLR

T1 sequence (P06756 31-992 limits assumed): as the sequence (P06756 31-992 limits assumed) above
T1 sequence (P18564 22-707 limits assumed): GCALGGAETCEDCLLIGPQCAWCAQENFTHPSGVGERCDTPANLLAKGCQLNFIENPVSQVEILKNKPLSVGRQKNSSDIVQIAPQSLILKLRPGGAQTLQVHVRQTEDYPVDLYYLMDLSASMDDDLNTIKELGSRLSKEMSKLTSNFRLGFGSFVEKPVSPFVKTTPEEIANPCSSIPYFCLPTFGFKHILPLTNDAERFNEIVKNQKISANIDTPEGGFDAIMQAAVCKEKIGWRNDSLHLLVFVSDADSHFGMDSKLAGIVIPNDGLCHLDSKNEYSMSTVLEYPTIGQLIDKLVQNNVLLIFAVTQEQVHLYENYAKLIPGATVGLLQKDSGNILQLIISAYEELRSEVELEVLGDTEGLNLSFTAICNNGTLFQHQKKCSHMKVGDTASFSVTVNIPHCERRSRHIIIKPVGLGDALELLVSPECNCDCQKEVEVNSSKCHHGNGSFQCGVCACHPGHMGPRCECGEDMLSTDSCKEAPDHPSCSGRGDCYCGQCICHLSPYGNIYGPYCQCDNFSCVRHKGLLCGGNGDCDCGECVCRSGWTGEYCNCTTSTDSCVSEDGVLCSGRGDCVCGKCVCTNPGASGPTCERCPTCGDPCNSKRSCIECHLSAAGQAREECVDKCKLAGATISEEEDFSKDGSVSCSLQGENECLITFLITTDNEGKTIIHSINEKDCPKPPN

| SMILES | IC50 [1] | IC50 [2] | IC50 [3] | IC50 [4] |
| --- | --- | --- | --- | --- |
| COc1ccc(C2CCOCC2)cc1C(CC(=O)O)Cc1csc(CCCc2ccc3c(n2)NCCC3)n1 (stereo not drawn) [Example 43, 3-(2-methoxy-5-(tetrahydro-2H-pyran-4-yl)phenyl)-4-(2-(3-(5,6,7,8-tetrahydro-1,8-naphthyridin-2-yl)propyl)thiazol-4-yl)butanoic acid] | 95 nM | 3 nM | 65 nM | 210 nM |
| COc1ccc(C(CC(=O)O)Cc2cc(OCCc3ccc4c(n3)NCCC4)n(C)n2)cc1F (stereo not drawn) [Example 44, 3-(3-fluoro-4-methoxyphenyl)-4-(1-methyl-5-(2-(5,6,7,8-tetrahydro-1,8-naphthyridin-2-yl)ethoxy)-1H-pyrazol-3-yl)butanoic acid] | 44 nM | 3.2 nM | 47 nM | 80 nM |
| COCC1(c2ccc(OC)c(C(CC(=O)O)Cc3cc(OCCc4ccc5c(n4)NCCC5)n(C)n3)c2)CCOCC1 (stereo not drawn) [Example 45, 3-(2-methoxy-5-(4-(methoxymethyl)tetrahydro-2H-pyran-4-yl)phenyl)-4-(1-methyl-5-(2-(5,6,7,8-tetrahydro-1,8-naphthyridin-2-yl)ethoxy)-1H-pyrazol-3-yl)butanoic acid] | 4100 nM | 2.2 nM | 13 nM | 1000 nM |
| COc1ccc(C2CCOCC2)cc1C(CC(=O)O)Cc1cc(OCCc2ccc3c(n2)NCCC3)n(C)n1 (stereo not drawn) [Example 46, 3-(2-methoxy-5-(tetrahydro-2H-pyran-4-yl)phenyl)-4-(1-methyl-5-(2-(5,6,7,8-tetrahydro-1,8-naphthyridin-2-yl)ethoxy)-1H-pyrazol-3-yl)butanoic acid] | 260 nM | 2.8 nM | 16 nM | 250 nM |
| Cn1nc(C[C@@H](CC(=O)O)c2cc3c(c(C(C)(C)C)c2)OCO3)cc1OCCc1ccc2c(n1)NCCC2 [Example 47] | 15 nM | 0.92 nM | 6.2 nM | 34 nM |
| COCC1(c2ccc(OC)c([C@H](CC(=O)O)Cc3cc(OCCc4ccc5c(n4)NCCC5)n(C)n3)c2)CCOCC1 [Example 48, (S)-3-(2-methoxy-5-(4-(methoxymethyl)tetrahydro-2H-pyran-4-yl)phenyl)-4-(1-methyl-5-(2-(5,6,7,8-tetrahydro-1,8-naphthyridin-2-yl)ethoxy)-1H-pyrazol-3-yl)butanoic acid] | 2800 nM | 2.4 nM | 9.7 nM | 540 nM |
